Data taken from patent US12097174B2, “Methods and agents that enhance myogenic progenitor cell engraftment” (President and Fellows of Harvard College, priority 2018, dated 2024).
Entries after “also recorded” stand apart in the source; their conditions may differ.

Experiments:
[1] = tested on: Zebrafish myogenic progenitor cells (ZeMPCs); test: Limiting dilution engraftment assay (ELDA): cells treated ex vivo, transplanted into adult zebrafish, imaged at 7 dpt; type: in vivo
Description: Donor cells were derived from embryos that contained a GFP cassette driven by the promoter for mylz2, a muscle-specific structural protein. Recipients were optically clear, immunocompromised adult prkdc−/− zebrafish. To perform a limiting dilution assay, three doses (n=100, 200, and 400 cells) were administered per treatment (n=10 engraftment events per treatment-dose combination). The estimated engrafting cell frequency was calculated using the Extreme Limiting Dilution Analysis (ELDA, Hu et. al. 2009), which provides the most likely estimate (MLE) of engrafting cell frequency.
Given that this group of 230 lipids is too many to be examined in mice, transplantation efficiency was instead examined via limit-dilution assays in 15 recipient zebrafish per compound after a brief (4 hour) ex vivo chemical exposure. Positive hits from this primary screening were rescreened in replicate transplantation experiments incorporating dose response testing.
Lipids are frequently found to enhance cell migration and homeostasis in blood and muscle tissue (Cencetti et al., 2014; Lahvic et al., 2018; Li et al., 2015; Oh et al., 2016), and so it was elected to screen mainly bioactive lipids in efforts to identify compounds that enhance ZeMPCs engraftment efficiency in vivo. Myogenic progenitor cells were treated for 4 hours with one of the 188 unique lipid compounds contained in the ICCB Known Bioactives Library. Compound-treated cells were then harvested and transplanted intramuscularly into both flanks of 5 different casper recipient fish, with transplants performed at each of 3 transplanted cell doses (25, 75 or 150 cells). In these studies, recipient fish received split-dose irradiation of 15 Gy at 2 days and 1 day prior to transplantation to suppress any immune responses to the transplanted cells. Engraftment efficiency was measured by imaging casper recipients at 7 dpt (FIG. 18A). […] For this secondary screening approach, cells were transplanted into prkdc^D3612ls casper fish, which are deficient in mature T and B cells, and assayed engraftment efficiency in the recipient fish 7 days post-transplantation. Two compounds were identified, lysophosphatidic acid (LPA) and niflumic acid (NFA), which increased ZeMPC engraftment efficiency in both of these assay systems (FIG. 12B).
Lipids from the ICCB Known Bioactives Library (enzolifesciences.com/BML-2840/iccb-known-bioactives-library) were diluted at a 1:100 ratio in transplantation media (zESC medium without bFGF and FBS) and added to prewashed in vitro expanded muscle cells. NFA (Cayman and Santa Cruz Biotechnology) and LPA (Cayman and Santa Cruz Biotechnology) were used for the secondary confirmation screening experiments. […] 4- to 8-month-old casper recipients received split-dose irradiation of 15 Gy each, either 2 days or 1 day before transplantation. For LDA screening, cells were transplanted into each side of 5 pre-irradiated casper recipient fish or 5 non-irradiated prkdc-mutant recipient zebrafish. At 7 dpt, the recipients were anaesthetized using a previously described method (Dang et al., 2016) and imaged using a fluorescent stereo microscope (Leica M165 FC). Successful engraftment was defined as the presence of GFP+ fibers. Variation in different experiments is caused by inherent variability in the in vitro ZeMPC derivation procedure, which results in differences in engrafting cell frequency across different derivation attempts. To mitigate the impact of such experimental variation on screening results, only LDA results for cells derived from the same cultures were compared. Comparison to a vehicle-treated experimental control was included in every transplantation experiment. Next, the chemical treated cell potency and vehicle-treated cell potency was measured using the Extreme Limiting Dilution Analysis (ELDA) software (Hu and Smyth, 2009). The ratio of the treated cell potency and vehicle-treated cell potency determine the engraftment efficiency fold increase value.

ZeMPCs = test: Calcium imaging in Fura-2, AM treated ZeMPCs (single-cell imaging); type: cell-based, zebrafish; details: 10 μM NFA, 5 μM LPA, 10 μM ionomycin; 10-20 seconds after loading
Description: Fura-2, AM treated ZeMPCs were exposed to 10 μM NFA, 5 μM LPA, 10 μM lonomycin (as a positive control) and DMSO (as vehicle control) to visualize their effect on intracellular calcium ion concentration using single-cell imaging. […] Scale bar 50 μm.
(§1) The ZeMPCs and C2C12 cells were incubated with Fura-2, AM (Thermo Fisher Sci F1225), a cell permeant fluorescent calcium ion indicator, for 45 minutes at 28.5° C. and 37° C., respectively, followed by imaging with Celldiscoverer7 Microscope (Zeiss). 20 seconds after imaging initiation the treatment was added to the cells and continued for a total of 2-3 minutes.

C2C12 cells = test: Calcium imaging in Fura-2, AM treated C2C12 cells (single-cell imaging); type: cell-based, mouse; details: 10 μM NFA, 5 μM LPA; 10-20 seconds after loading
Description: Fura-2, AM treated C2C12 cells were exposed to 10 μM NFA, 5 μM LPA or DMSO as vehicle control to visualize the effect on intracellular calcium ion concentration using single-cell imaging. […] Scale bar 50 μm.
as §1

Structure (SMILES)	engraftment frequency ([1]; concurrent injection of donor cells with 10 uM MFA)	estimated engrafting cell frequency / engraftment ([1]; donor cells treated 2 hours with 10 uM MFA before transplantation, vs vehicle, p=0.0367)	engraftment efficiency of treated ZeMPCs ([1]; prkdc-mutant zebrafish, vs vehicle-treated controls)	intracellular calcium ion concentration (ZeMPCs)	intracellular calcium ion concentration (C2C12 cells)
Cc1ccc(Cl)c(Nc2ccccc2C(=O)O)c1Cl [MFA, meclofenamic acid]	not sufficient to increase engraftment frequency	increase the engraftment capacity; also recorded: optimally increase engraftment; also recorded: higher			
C[C@H](CCC(=O)O)C[C@H](C)C[C@H](C)C(=O)/C=C(\O)[C@H](C)C[C@H](C)C/C=C/[C@@H](C)[C@@H](O)[C@@H](C)[C@@H](O)C[C@@H]1CC[C@@](C)([C@H]2CC[C@@](C)([C@@H](C)O)O2)O1 [ionomycin]			increased the engraftment efficiency	increase	increase
